Tests used:
[1] = test system: A-375; test: Cytotoxicity against human A-375 cells assessed as cell viability at 5 uM incubated for 48 hrs (reference value: 100 %); format: functional; settings: read-out: Activity
[2] = test system: A-375; test: Cytotoxicity against human A-375 cells assessed as cell viability at 10 uM incubated for 48 hrs (reference value: 100 %); format: functional; settings: read-out: Activity
[3] = test system: HT-1080; test: Cytotoxicity against human HT-1080 cells assessed as reduction in cell viability incubated for 48 hrs; format: functional, cell-based; settings: HT-1080, 48 h
[4] = test system: A549; test: Cytotoxicity against human A549 cells assessed as reduction in cell viability incubated for 48 hrs; format: functional, cell-based; settings: A549, 48 h
[5] = test system: MCF7; test: Cytotoxicity against human MCF7 cells assessed as reduction in cell viability incubated for 48 hrs; format: functional, cell-based; settings: MCF7, 48 h
[6] = test system: MDA-MB-231; test: Cytotoxicity against human MDA-MB-231 cells assessed as reduction in cell viability incubated for 48 hrs; format: functional, cell-based; settings: MDA-MB-231, 48 h

Row | SMILES | viability at 5 µM [1] [%] | viability at 10 µM [2] [%] | IC50 [3] [nM] | IC50 [4] [nM] | IC50 [5] [nM] | IC50 [6] [nM]
1 | N/C(=N\O)c1ccc(Cn2ncc(=O)[nH]c2=O)cc1 | 100 | 94 |  |  |  | 
2 | COc1ccc(-c2ccc(-c3nc(-c4ccc(Cn5cc(F)c(=O)[nH]c5=O)cc4)no3)cc2)cc1 | 29 | 23 | 980 | 4020 | 890 | 6520
3 | COc1ccc(-c2ccc(-c3nc(-c4ccc(Cn5ncc(=O)[nH]c5=O)cc4)no3)cc2)cc1 | 76 | 44 |  |  |  | 
4 | O=c1ccn(Cc2ccc(-c3noc(-c4ccc(-c5ccccc5)cc4)n3)cc2)c(=O)[nH]1 | 85 | 82 |  |  |  | 
5 | O=c1[nH]c(=O)n(Cc2ccc(-c3noc(-c4ccccc4)n3)cc2)cc1F | 56 | 30 |  |  |  | 
6 | O=c1ccn(Cc2ccc(-c3noc(-c4ccccc4)n3)cc2)c(=O)[nH]1 | 76 | 72 |  |  |  | 

From ChEMBL document CHEMBL4673234, “Design, synthesis, biological evaluation and molecular docking of new uracil analogs-1,2,4-oxadiazole hybrids as potential anticancer agents” (Bioorg Med Chem Lett, 2020)
